Source: ChEMBL document CHEMBL1201862, “PubChem BioAssay data set” (2004)
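All cell lines were grown in 96-well plates and treated with compound for 48 hours. Abbreviation: GI50, concentration required for 50% inhibition of growth.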 Active and inactive are the calls of the source. Rule as the data show it: active = GI50 up to about 1.1 µM and inactive = higher.

Key:
Assay in all cases: DTP human tumour cell line panel, 48 h
[1] = test system: 786-0
[2] = test system: A498
[3] = test system: A549
[4] = test system: ACHN
[5] = test system: BT-549
[6] = test system: CAKI-1
[7] = test system: CCRF-CEM
[8] = test system: COLO 205
[9] = test system: DU-145
[10] = test system: EKVX
[11] = test system: HCC 2998
[12] = test system: HCT-116
[13] = test system: HCT-15
[14] = test system: HL-60
[15] = test system: HOP-62
[16] = test system: HOP-92
[17] = test system: HT-29
[18] = test system: Hs-578T
[19] = test system: IGROV-1
[20] = test system: K562
[21] = test system: KM12
[22] = test system: LOX IMVI
[23] = test system: M14
[24] = test system: MCF7
[25] = test system: MDA-MB-231
[26] = test system: MDA-MB-435
[27] = test system: MDA-N
[28] = test system: MOLT-4
[29] = test system: Malme-3M
[30] = test system: NCI-H226
[31] = test system: NCI-H23
[32] = test system: NCI-H460
[33] = test system: NCI-H522
[34] = test system: NCI/ADR-RES
[35] = test system: OVCAR-3
[36] = test system: OVCAR-4
[37] = test system: OVCAR-5
[38] = test system: OVCAR-8
[39] = test system: PC-3
[40] = test system: RPMI-8226
[41] = test system: RXF 393
[42] = test system: SF-268
[43] = test system: SF-295
[44] = test system: SF-539
[45] = test system: SK-MEL-28
[46] = test system: SK-MEL-2
[47] = test system: SK-MEL-5
[48] = test system: SK-OV-3
[49] = test system: SN12C
[50] = test system: SNB-19
[51] = test system: SNB-75
[52] = test system: SR
[53] = test system: SW-620
[54] = test system: T47D
[55] = test system: TK-10
[56] = test system: U-251
[57] = test system: UACC-257
[58] = test system: UACC-62
[59] = test system: UO-31

O=C1C=CC(=O)C(CNc2ccc(C(=O)OC34CC5CC(CC(C5)C3)C4)cc2)=C1
GI50 [1]: 10.3 µM (inactive)
GI50 [2]: 11.7 µM (inactive)
GI50 [3]: 16.1 µM (inactive)
GI50 [4]: 6.28 µM (inactive)
GI50 [5]: 5.12 µM (inactive)
GI50 [6]: 0.753 µM (active)
GI50 [7]: 1.34 µM (inactive)
GI50 [8]: 2.04 µM (inactive)
GI50 [9]: 19.4 µM (inactive)
GI50 [10]: 6.53 µM (inactive)
GI50 [11]: 15 µM (inactive)
GI50 [12]: 10 µM (inactive)
GI50 [13]: 2.44 µM
GI50 [14]: 1.53 µM (inactive)
GI50 [15]: 11.4 µM (inactive)
GI50 [16]: 3.28 µM (inactive)
GI50 [17]: 9.44 µM (inactive)
GI50 [18]: 2.38 µM (inactive)
GI50 [19]: 1.54 µM (inactive)
GI50 [20]: 4.52 µM (inactive)
GI50 [21]: 5.94 µM (inactive)
GI50 [22]: 4.57 µM (inactive)
GI50 [23]: 12.6 µM (inactive)
GI50 [24]: 3.43 µM (inactive)
GI50 [25]: 14 µM (inactive)
GI50 [26]: 5.93 µM (inactive)
GI50 [27]: 4.73 µM (inactive)
GI50 [28]: 1.51 µM (inactive)
GI50 [29]: 4.58 µM (inactive)
GI50 [30]: 2 µM (inactive)
GI50 [31]: 6.67 µM (inactive)
GI50 [32]: 15.2 µM (inactive)
GI50 [33]: 0.776 µM (active)
GI50 [34]: 3.44 µM (inactive)
GI50 [35]: 3.06 µM (inactive)
GI50 [36]: 3.01 µM (inactive)
GI50 [37]: 15.1 µM (inactive)
GI50 [38]: 5.11 µM (inactive)
GI50 [39]: 6.07 µM (inactive)
GI50 [40]: 1.93 µM (inactive)
GI50 [41]: 1.71 µM (inactive)
GI50 [42]: 11.9 µM (inactive)
GI50 [43]: 16.6 µM (inactive)
GI50 [44]: 2.49 µM (inactive)
GI50 [45]: 4.69 µM (inactive)
GI50 [46]: 15.1 µM (inactive)
GI50 [47]: 4.38 µM (inactive)
GI50 [48]: 20 µM (inactive)
GI50 [49]: 11.3 µM (inactive)
GI50 [50]: 12.8 µM (inactive)
GI50 [51]: 3.39 µM (inactive)
GI50 [52]: 3.81 µM (inactive)
GI50 [53]: 10.5 µM (inactive)
GI50 [54]: 2.49 µM (inactive)
GI50 [55]: 11.5 µM (inactive)
GI50 [56]: 4.06 µM (inactive)
GI50 [57]: 6.04 µM (inactive)
GI50 [58]: 5.14 µM (inactive)
GI50 [59]: 4.24 µM (inactive)

CC(C)/C(Cl)=N/OC(=O)Nc1ccc(F)c(Cl)c1
GI50 [1]: 1.6 µM (inactive)
GI50 [2]: 18.2 µM (inactive)
GI50 [3]: 18.1 µM (inactive)
GI50 [4]: 1.88 µM (inactive)
GI50 [5]: 5.06 µM (inactive)
GI50 [6]: 1.68 µM (inactive)
GI50 [7]: 1.31 µM (inactive)
GI50 [8]: 1.77 µM (inactive)
GI50 [9]: 16.2 µM (inactive)
GI50 [10]: 2.07 µM (inactive)
GI50 [11]: 14.6 µM (inactive)
GI50 [12]: 2.54 µM (inactive)
GI50 [13]: 1.93 µM
GI50 [14]: 2.03 µM (inactive)
GI50 [15]: 17.6 µM (inactive)
GI50 [16]: 1.59 µM (inactive)
GI50 [17]: 5.69 µM (inactive)
GI50 [18]: 21.6 µM (inactive)
GI50 [19]: 12.9 µM (inactive)
GI50 [20]: 1.09 µM (active)
GI50 [21]: 16.6 µM (inactive)
GI50 [22]: 1.76 µM (inactive)
GI50 [23]: 3.23 µM (inactive)
GI50 [24]: 6.64 µM (inactive)
GI50 [25]: 16.2 µM (inactive)
GI50 [26]: 7.26 µM (inactive)
GI50 [27]: 3.92 µM (inactive)
GI50 [28]: 1.94 µM (inactive)
GI50 [29]: 1.96 µM (inactive)
GI50 [30]: 16.6 µM (inactive)
GI50 [31]: 14.2 µM (inactive)
GI50 [32]: 18.2 µM (inactive)
GI50 [33]: 1.65 µM (inactive)
GI50 [34]: 14.5 µM (inactive)
GI50 [35]: 3.4 µM (inactive)
GI50 [36]: 8.49 µM (inactive)
GI50 [37]: 19.2 µM (inactive)
GI50 [38]: 17.4 µM (inactive)
GI50 [39]: 16.1 µM (inactive)
GI50 [40]: 1.87 µM (inactive)
GI50 [41]: 12.9 µM (inactive)
GI50 [42]: 19.4 µM (inactive)
GI50 [43]: 16.1 µM (inactive)
GI50 [44]: 6.43 µM (inactive)
GI50 [45]: 2.23 µM (inactive)
GI50 [46]: 18.8 µM (inactive)
GI50 [47]: 13.1 µM (inactive)
GI50 [48]: 16.4 µM (inactive)
GI50 [49]: 1.76 µM (inactive)
GI50 [50]: 22.6 µM (inactive)
GI50 [51]: 17.8 µM (inactive)
GI50 [52]: 1.56 µM (inactive)
GI50 [53]: 1.92 µM (inactive)
GI50 [54]: 5.11 µM (inactive)
GI50 [55]: 17.9 µM (inactive)
GI50 [56]: 21.1 µM (inactive)
GI50 [57]: 13.5 µM (inactive)
GI50 [58]: 14.2 µM (inactive)
GI50 [59]: 16.7 µM (inactive)

CCN(CC)c1ccc(/C=C/C2=NN(c3cccc(S(=O)(=O)O)c3)C3(C2)C(Cl)C(=O)N3c2nc3ccccc3s2)cc1 (stereo unspecified)
GI50 [1]: 5.65 µM (inactive)
GI50 [2]: 12 µM (inactive)
GI50 [3]: 11.2 µM (inactive)
GI50 [4]: 10.9 µM (inactive)
GI50 [5]: 9.25 µM (inactive)
GI50 [6]: 3.48 µM (inactive)
GI50 [7]: 1.83 µM (inactive)
GI50 [8]: 14.1 µM (inactive)
GI50 [9]: 12.6 µM (inactive)
GI50 [10]: 8.79 µM (inactive)
GI50 [11]: 7.36 µM (inactive)
GI50 [12]: 10.5 µM (inactive)
GI50 [13]: 7.03 µM
GI50 [14]: 1.89 µM (inactive)
GI50 [15]: 7.36 µM (inactive)
GI50 [16]: 6.73 µM (inactive)
GI50 [17]: 13.8 µM (inactive)
GI50 [18]: 14.4 µM (inactive)
GI50 [19]: 4.88 µM (inactive)
GI50 [20]: 5.55 µM (inactive)
GI50 [21]: 7.83 µM (inactive)
GI50 [22]: 2.82 µM (inactive)
GI50 [23]: 12.4 µM (inactive)
GI50 [24]: 6.7 µM (inactive)
GI50 [25]: 7.8 µM (inactive)
GI50 [26]: 5.87 µM (inactive)
GI50 [27]: 12.4 µM (inactive)
GI50 [28]: 3.04 µM (inactive)
GI50 [29]: 11.1 µM (inactive)
GI50 [30]: 13.1 µM (inactive)
GI50 [31]: 7.01 µM (inactive)
GI50 [32]: 9.1 µM (inactive)
GI50 [33]: 1.72 µM (inactive)
GI50 [34]: 17.9 µM (inactive)
GI50 [35]: 4.11 µM (inactive)
GI50 [36]: 4.89 µM (inactive)
GI50 [37]: 23.1 µM (inactive)
GI50 [38]: 8.99 µM (inactive)
GI50 [39]: 8.28 µM (inactive)
GI50 [40]: 2.32 µM (inactive)
GI50 [41]: 3.98 µM (inactive)
GI50 [42]: 16.8 µM (inactive)
GI50 [43]: 13.3 µM (inactive)
GI50 [44]: 3.32 µM (inactive)
GI50 [45]: 20.7 µM (inactive)
GI50 [46]: 12.5 µM (inactive)
GI50 [47]: 6.71 µM (inactive)
GI50 [48]: 12.4 µM (inactive)
GI50 [49]: 8.18 µM (inactive)
GI50 [50]: 12.5 µM (inactive)
GI50 [51]: 11.1 µM (inactive)
GI50 [52]: 2.47 µM (inactive)
GI50 [53]: 10.2 µM (inactive)
GI50 [54]: 3.06 µM (inactive)
GI50 [55]: 4.95 µM (inactive)
GI50 [56]: 3.4 µM (inactive)
GI50 [57]: 7.24 µM (inactive)
GI50 [58]: 7.91 µM (inactive)
GI50 [59]: 1.72 µM (inactive)

O=C(/C=C/c1cccc2ccccc12)c1ccccc1
GI50 [1]: 8.83 µM (inactive)
GI50 [2]: 17.4 µM (inactive)
GI50 [3]: 15.2 µM (inactive)
GI50 [4]: 13.9 µM (inactive)
GI50 [5]: 13.2 µM (inactive)
GI50 [6]: 12.2 µM (inactive)
GI50 [7]: 3.28 µM (inactive)
GI50 [8]: 20.7 µM (inactive)
GI50 [9]: 14.8 µM (inactive)
GI50 [10]: 13.4 µM (inactive)
GI50 [11]: 15.7 µM (inactive)
GI50 [12]: 10.3 µM (inactive)
GI50 [13]: 6.85 µM
GI50 [14]: 2.88 µM (inactive)
GI50 [15]: 19.8 µM (inactive)
GI50 [16]: 18.3 µM (inactive)
GI50 [17]: 4.57 µM (inactive)
GI50 [18]: 26.3 µM (inactive)
GI50 [19]: 7.45 µM (inactive)
GI50 [20]: 2.74 µM (inactive)
GI50 [21]: 4.71 µM (inactive)
GI50 [22]: 1.99 µM (inactive)
GI50 [23]: 14.6 µM (inactive)
GI50 [24]: 1.29 µM (inactive)
GI50 [25]: 8.93 µM (inactive)
GI50 [26]: 8.81 µM (inactive)
GI50 [27]: 5.71 µM (inactive)
GI50 [28]: 3.94 µM (inactive)
GI50 [29]: 12.9 µM (inactive)
GI50 [30]: 12.7 µM (inactive)
GI50 [31]: 13.7 µM (inactive)
GI50 [32]: 16.1 µM (inactive)
GI50 [33]: 10.1 µM (inactive)
GI50 [34]: 14 µM (inactive)
GI50 [35]: 9.16 µM (inactive)
GI50 [36]: 12.9 µM (inactive)
GI50 [37]: 13.8 µM (inactive)
GI50 [38]: 8.45 µM (inactive)
GI50 [39]: 7.05 µM (inactive)
GI50 [40]: 2.31 µM (inactive)
GI50 [41]: 10.9 µM (inactive)
GI50 [42]: 16.5 µM (inactive)
GI50 [43]: 16.5 µM (inactive)
GI50 [44]: 3.57 µM (inactive)
GI50 [45]: 17.7 µM (inactive)
GI50 [46]: 14 µM (inactive)
GI50 [47]: 12.5 µM (inactive)
GI50 [48]: 16.3 µM (inactive)
GI50 [49]: 7.89 µM (inactive)
GI50 [50]: 14.5 µM (inactive)
GI50 [51]: 15.9 µM (inactive)
GI50 [52]: 2.9 µM (inactive)
GI50 [53]: 4 µM (inactive)
GI50 [54]: 11.7 µM (inactive)
GI50 [55]: 6.35 µM (inactive)
GI50 [56]: 8.63 µM (inactive)
GI50 [57]: 15 µM (inactive)
GI50 [58]: 11.7 µM (inactive)
GI50 [59]: 11.6 µM (inactive)
